# “Also recorded” adds a separate entry of the source.
# Key:
# Huh7 = test: TC50 assay in different human cell lines (96 h), Huh7; type: cell-based; conditions: Huh-7, about 96 h, MTS assay
# Description: (§1) The 96-well plate with cells incubated with test compound was removed from the 37° C. incubator. The appropriate amounts of the MTS and PMS reagents were removed from the kit and mixed well. The reagents were maintained in the dark due to their light sensitivity. […] The solutions were mixed completely in the wells prior to each reading.
# (§2) Plating Cells: Huh7, HEPG2, HEK293, MCF-7, or BxPC3 cells (which can be obtained from American Type Culture Collection, ATCC) were passaged when they were about 70% confluent. […] The cells following passaging were allowed to attach for about 24 hours at 37° C.
# (§3) The plates were then returned to the incubator, and cells incubated for about 96 h at 37° C.
# (§4) MTS Assay: Assay was carried out as described above.
# PK9 cells [1] = test: TC50 assay with inhibition of ENT1, PK9 cells; type: cell-based; conditions: Homo sapiens, PK9, 48 h, PK9 cells (48 h)
# Description: Plating Cells: Huh7 cells or PK9 cells were seeded in 96-well plates at a density of 5,000 cells/well or 2,500 cells/well, respectively, and the plates were incubated at 37° C. for 24 h to allow for cell attachment.
# Treatment with equilibrative nucleoside transporter 1 (ENT1) Inhibitor: The media was then removed from the plates and replaced with media containing 2% FBS, 0.5% DMSO, and either 10 μM dipyramidole or 10 μM S-(4-nitrobenzyl)-6-thioinosine (NBTI).
# Treating with Control & Compound 1: After incubation with the ENT1 inhibitor, the cells were treated with each compound at final concentrations ranging from 500 μM to 0 μM in triplicate in media containing 2% FBS, 0.5% DMSO, and either 10 μM dipyridamole or 10 μM NBTI.
# MCF-7 = test: TC50 assay in different human cell lines (96 h), MCF-7; type: cell-based; conditions: MCF7, about 96 h, MTS assay
# Description: as §1, §2, §3, §4
# CD-1 ICR mice = test: In vivo toxicology assessment
# Description: All in vivo toxicology assays were performed with CD-1 ICR mice (female, 4-6 week old; 20-30 gram body weight). Groups of one to five mice were treated at each dose level. In one study, compound 1 was prepared at concentrations ranging from 0.1 mg/mL to 30 mg/mL in dimethyl sulfoxide (DMSO) and 200 μL of each solution was administered via oral gavage to mice at final doses of 0.67, 2.0, 6.7, 20, 67 and 200 mg/kg.
# A second study was carried out using a different vehicle. As above, CD-1 ICR mice (female, 4-6 week old; 20-30 gram body weight) were used. Groups of one to five mice were treated at each dose level. Compound 1 was prepared in Formulation I (5% DMSO/10% Solutol/17% (2-Hydroxypropyl)-β-cyclodextrin in aqueous solution) at concentrations ranging from 0.03 mg/mL to 1.0 mg/mL, and administered orally. Briefly, mice were treated with 200 μL of compound 1 in Formulation I via oral gavage at final doses of 2.4 mg/kg and 8.0 mg/kg. In a parallel study, compound 1 was administered intravenously. Briefly, mice were injected with 100 μL of compound 1 in Formulation I at final doses ranging from 0.12 mg/kg to 4.0 mg/kg.
# [2] = In vivo pharmacokinetic assessment (LC-MS/MS, plasma and liver); conditions: mice, oral
# Description: All pharmacokinetic studies were performed with CD-1 ICR mice (female, 4-6 week old; 20-30 gram body weight), and three mice were used at each dose level and at each time point for each compound tested. […] Tetrahydrouridine (THU) was immediately added to plasma samples at a final concentration of 25 μg/mL to prevent deamination of dFdC after collection, and the samples were subsequently flash-frozen and stored at −80° C. until analysis. Approximately 200-300 mg of each mouse liver was dissected and homogenized in 150 μL of phosphate buffered saline (PBS) containing 25 μg/mL THU, resulting in 2 mg liver/μL saline homogenate. These liver homogenates were also flash-frozen and stored at −80° C. until analysis. Equivalent amounts of blood plasma and liver tissue were also collected from untreated mice and used to prepare calibration standards and quality controls. An LC-MS/MS assay was utilized to simultaneously quantify the concentrations of compound 1, dFdC and dFdU in each of the plasma and liver samples.
# PK9 cells [3] = test: TC50 assay, effect of deficient deoxycytidine kinase activity, PK9 cells; type: cell-based; conditions: Homo sapiens, 48 h, read-out: TC50 (μM), 48 h treatment
# Description: (§5) Plating Cells: PK9 or RPK9 cells were seeded in 96-well plates at a density of 2,500 cells/well or 2,500 cells/well, respectively, and the plates were incubated at 37° C. for 24 h to allow for cell attachment.
# (§6) Treating with Control & Compound 1: The cells were treated with each compound at final concentrations ranging from 500 μM to 0 μM in triplicate in media containing 2% FBS and 0.5% DMSO.
# (§7) The RPK9 cells are described in Saiki, T., et al. (2012) Biochim. Biophys. Res. Commun. 421, 98-104).
# [4] = Stability test at different pH conditions (HPLC); type: physicochemical
# Description: HPLC analysis: 100 μl of the incubated solution was loaded onto a Vydac C18 analytical column 4.6/250, and the mobile phase run at 1 mL/min water with the following procedures: a. Inject 100 μl the incubated solution; b. Water for 5 minutes at 1 ml/min; c. 0-100% acetonitrile over 30 minutes; d. Back to 100% water.
# Analysis: Standard HPLC analysis software was used to quantitate the area under each peak. Degradation peaks were quantitated as a percentage of the peak of the same amount of control sample (no heat treatment).
# BxPC3 = test: TC50 assay in different human cell lines (96 h), BxPC3; type: cell-based; conditions: BXPC-3, about 96 h, MTS assay
# Description: as §1, §2, §3, §4
# HEPG2 = test: TC50 assay in different human cell lines (96 h), HEPG2; type: cell-based; conditions: about 96 h, MTS assay
# Description: as §1, §2, §3, §4
# RPK9 cells = test: cells; conditions: Homo sapiens, 48 h, read-out: TC50 (μM), 48 h treatment
# Description: as §5, §6, §7
smiles,measurement,setting,value
"O=C(Nc1ccn(C2O[C@H](CO)[C@@H](O)C2(F)F)c(=O)n1)c1ccc2c(c1)OCO2 (stereo partly drawn) [Compound 1, N-(1-((4R,5R)-3,3-difluoro-4-hydroxy-5-(hydroxymethyl)tetrahydrofuran-2-yl)-2-oxo-1,2-dihydropyrimidin-4-yl)benzo[d][1,3]dioxole-5-carboxamide]",CC50,Huh7,7040 nM
same,CC50,PK9 cells [1]; 10 μM NBTI,2920 ± 410 nM
same,CC50,PK9 cells [1]; 10 μM dipyridamole,610 ± 310 nM
same,CC50,PK9 cells [1]; ENT1 inhibitor: None,1630 ± 100 nM
same,CC50,MCF-7,1190 nM
same,tolerability / toxicity,"CD-1 ICR mice; IV in Formulation I, 0.12 to 4.0 mg/kg, 48 hour observation",well-tolerated and no toxicity was observed
same,tolerability / toxicity,"CD-1 ICR mice; oral gavage in DMSO, 0.67-200 mg/kg, 24 hour observation",well-tolerated and no toxicity was observed
same,tolerability / toxicity,"CD-1 ICR mice; oral gavage in Formulation I, 2.4 and 8.0 mg/kg, 48 hour observation",well-tolerated and no toxicity was observed
same,"distribution of gemcitabine produced by hydrolysis, liver versus plasma",[2],higher concentration in the liver than in plasma
same,linearity of dFdC exposure vs. compound 1 dosage,[2]; 1.0-8.0 mg/kg,linear pharmacokinetics
same,Liver AUCobs of compound 1,[2]; dose 1.0 mg/kg,1.10 µmol·min/L
same,Plasma AUCobs of compound 1,[2]; dose 1.0 mg/kg,0.95 µmol·min/L
same,Plasma AUCobs of dFdC converted from compound 1,[2]; dose 1.0 mg/kg,0.26 µmol·min/L
same,Liver AUCobs of compound 1,[2]; dose 4.0 mg/kg,7.84 µmol·min/L
same,Plasma AUCobs of compound 1,[2]; dose 4.0 mg/kg,3.45 µmol·min/L
same,Plasma AUCobs of dFdC converted from compound 1,[2]; dose 4.0 mg/kg,5.03 µmol·min/L
same,Liver AUCobs of compound 1,[2]; dose 8.0 mg/kg,9.53 µmol·min/L
same,Plasma AUCobs of compound 1,[2]; dose 8.0 mg/kg,3.71 µmol·min/L
same,Plasma AUCobs of dFdC converted from compound 1,[2]; dose 8.0 mg/kg,9.45 µmol·min/L
same,first-pass metabolism to inactive metabolite dFdU,[2]; plasma and liver samples,less of the inactive metabolite dFdU; also recorded: reduced first pass metabolism to the inactive metabolite dFdU
same,CC50,PK9 cells [3],1.63 ± 0.1 µM
same,Compound remaining (%),[4]; Pretreatment,100%
same,Compound remaining (%),"[4]; pH 1, 40° C., 4 h",64%
same,Compound remaining (%),"[4]; pH 2, 40° C., 4 h",100%
same,Compound remaining (%),"[4]; pH 4, 40° C., 4 h",100%
same,Compound remaining (%),"[4]; pH 6, 40° C., 4 h",100%
same,Compound remaining (%),"[4]; pH 8, 40° C., 4 h",92%
same,CC50,BxPC3,720 nM
same,CC50,HEPG2,2810 nM
same,CC50,RPK9 cells,> 500 µM
